We go through 19 compounds from patent US20230092232A1, “COMPOUNDS THAT MODULATE ANTI-TUMOR IMMUNITY AND METHODS OF DOING THE SAME” (University of Florida Research Foundation, Incorporated, priority 2020, published 2023).

Series [1] concerns the target HLA-B*57:01 (Homo sapiens, UniProt P01889, D201E/D98Y/E176V/E187L/E204Q/E69M/E70A/G107R/I90N/K202T/L105A/L119I/N104I/N87E/Q89R/Q94S/R106L/R155S/R180L/R86G/S101N/S121V/S35A/S48A/T118I/V36M/Y140S/Y91M). As to conditions: cited from earlier work.
The conditions of series [2]: cited from earlier work.
The test system of series [3] is peripheral blood mononuclear cells from hypersensitive HLA-B*57.01+ patients. As to conditions: cultured with abacavir in vitro; cited from earlier work.
Series [4] concerns HLA alleles. As to conditions: cited from earlier work.
Series [5] has as its system PBMCs from an HLA-A2 expressing individual (UF 86). The series can be described thus: Ex vivo T cell stimulation assay, flow cytometry, HLA-A2 expressing PBMCs. As to conditions: for autologous mixed lymphocyte reaction: HLA-A2 expressing cells, FIG. 5. The series is classed as cell-based, human. On the procedure: Third, top scoring compounds were tested for their ability to modulate proliferation of peripheral blood mononuclear cells (PBMCs) from healthy individuals using ex vivo T cell stimulation assays. Here, the drugs predicted to bind HLA-A2 (FIGS. 4A-4I) were tested using PBMCs from HLA-typed normal individuals. In assays, drugs were incubated with PBMCs (for up to 14 days), and functional characteristics of the responding T cell population were assayed utilizing flow cytometry (e.g., using antibodies specific for CD3 and CD8). PBMCs were stimulated with drugs at […] per ml with interleukin-2 (IL-2) supplemented on day 2. […] PBMCs from an HLA-A2 expressing individual (“UF 86” is homozygous for HLA-A*02:01) were incubated with a panel of drugs predicted to bind HLA-A2 by molecular docking. PBMCs from an individual lacking HLA-A2 (“UF 85”) served as a control for HLA allele specificity. Cells were stained with antibodies specific for CD3, CD8 (cytotoxic T lymphocyte markers), CD69, and CD107a (LAMP-1) (activation markers) to identify those drugs from the top scoring grouping that modify cytotoxic T lymphocyte activity.
(A flow cytometer gives signals particle by particle.)

Series [6] concerns IMEA cells. The series can be described thus: In vitro killing of IMEA HCC cells, with or without BALB/c splenocytes. The series is classed as cell-based, mouse. On the set-up: IMEA cell killing: unit of the concentration uncertain. As to conditions: for enhanced killing of IMEA HCC: in vitro screening with T cells. On the procedure: Prior to validation in human systems, a mouse system targeting hepatocellular carcinoma (HCC), the most common form of liver cancer, was used. IMEA is a murine HCC line of the H2^d haplotype, expressing the H2-D^d, H2-K^d, and H2-L^d allelic variants.
(§1) In a first set of experiments, drugs (e.g., small molecules) that bind IMEA MHC were selected from a database compiled using the in silico modeling and scoring methodology disclosed herein, and were tested for T cell stimulation and HCC killing in vitro. The crystal structure of H2-D^d was used as the basis for in silico selection of FDA-approved drugs predicted to bind the antigen binding cleft. DOCK6, a structure-based design program for early drug discovery (available for download at http://dock.compbio.ucsf.edu/) was used to screen 1,207 FDA approved small molecule drugs by parallel processing at the University of Florida High Performance Computing Center. An initial 1,207 FDA approved compounds were selected based upon their predicted ability to bind the HLA-A2 supertype, and thus their predicted efficacy across a wide swath of individuals. The top 40 scoring compounds were obtained from the National Cancer Institute Developmental Therapeutics Program.
IMEA cells were seeded in 24-well plates. At 30% confluence of IMEA cells, 0.5×10^6 of BALB/c mouse splenocytes were added to half of the wells. The compounds under evaluation were incubated with IMEA cells in concentrations […] and 1 mM, and supernatant was subsequently collected.

Series [7] deals with H2-D^d T cells. The series can be described thus: In vitro T cell stimulation in the mouse HCC system. The series is classed as cell-based. As to the method: as §1
IMEA cells were seeded in 24-well plates. At 30% confluence of IMEA cells, 0.5×10^6 of BALB/c mouse splenocytes were added to half of the wells. The compounds under evaluation were incubated with IMEA cells in concentrations of 10 mM and 1 mM, and supernatant was subsequently collected.

“Also recorded” adds a separate entry of the source.

In the case of `Nc1nc(NC2CC2)c2ncn([C@H]3C=C[C@@H](CO)C3)c2n1` [Abacavir], the “CD8+ T cell activity” value in series [1] (by binding HLA-B*57:01) is on record as “enhances”. The “polyclonal T cell responses” value in series [1] (drug naïve individuals that carry the HLA-B*57:01 allele) is given as “stimulates”. Moreover, the “risk of a hypersensitivity reaction” value in series [2] (HLA-B*57:01 patient) is roughly 50%. The “overall incidence rate of hypersensitivity” value in series [2] (no genetic prescreening, HLA-B*57:01+ and HLA-B*57:01- individuals) was roughly 6%. Further, in series [3], the “immune response of PBMCs (interferon-γ, tumor necrosis factor-α, other inflammatory cytokines)” value is listed as “detectable immune response”.

Consider `NNc1nncc2ccccc12` [Hydralazine], for which the “HLA allele association(s) with adverse drug reaction” value (shortened to “HLA allele association(s)”) in series [4] is reported as “DR4”.

For `O=C(O)c1ccc(I)cc1O` [drug 10], the “autologous mixed lymphocyte reaction” value in series [5] is listed as “inhibit”.

Consider `O=C(O)CNC(=O)C(Cl)Cl` [drug 3], for which the “autologous mixed lymphocyte reaction” value in series [5] is on record as “inhibit”.

For `NC(=O)c1ncn([C@@H]2O[C@H](CO)[C@@H](O)[C@H]2O)n1` [compound 163039], the IMEA cell killing entry in series [6] (10 (unit uncertain)) is “killed”.

For `N[C@@H](Cc1ccc(N(CCCl)CCCl)cc1)C(=O)O` [compound 241286], the IMEA cell killing entry in series [6] (10 (unit uncertain)) is “killed”.

Turning to `Nc1ncn([C@@H]2O[C@H](CO)[C@@H](O)[C@H]2O)c(=O)n1` [vidaza], in series [7], the “stimulation of H2-D^d T cells” value is reported as “stimulated”. In addition, the “enhanced killing of IMEA HCC” value in series [6] is “enhanced killing”.

With `Cl.Nc1ccn([C@@H]2O[C@H](CO)[C@@H](O)[C@@H]2O)c(=O)n1` [compound 63878], the IMEA cell killing entry in series [6] (1 (unit uncertain)) and in series [6] (10 (unit uncertain)) was “killed” in each case.

`O=CC(Br)=C(Br)C(=O)O` [drug 11, 2,3-dibromo-4-oxobut-2-enoic acid]: the “number of activated CD8+ cells” value in series [5] (day 4, FIG. 5) was “enhances”.

Consider `Nc1ncn([C@@H]2O[C@H](CO)[C@@H](O)[C@H]2O)c(=O)n1` [compound 102816], for which the IMEA cell killing result in series [6] (10 (unit uncertain)) was “killed”.

In the case of Asparaginase, in series [4], the “HLA allele association(s)” value is reported as “DRB1*07:01”.

As for `N[C@@H](Cc1ccc(N(CCCl)CCCl)cc1)C(=O)O` [melphalan], the “stimulation of H2-D^d T cells” value in series [7] is given as “stimulated”. Besides, the “enhanced killing of IMEA HCC” value in series [6] was “enhanced killing”.

Regarding `CCOC(=O)CN[C@@H](C(=O)N1CC[C@H]1C(=O)NCc1ccc(/C(N)=N\O)cc1)C1CCCCC1` [Ximelagatran], in series [4], the “HLA allele association(s)” value is on record as “DRB1*07, DQA1*02; also recorded: DQB1*07:01”.

On to `CN1CCN(C2=Nc3cc(Cl)ccc3Nc3ccccc32)CC1` [Clozapine], for which the “HLA allele association(s)” value in series [4] was “B38, DR4, DR2”.

As to `CC1(C)S[C@@H]2[C@H](NC(=O)[C@H](N)c3ccccc3)C(=O)N2[C@H]1C(=O)O` [Aminopenicillins], the “HLA allele association(s)” value in series [4] is listed as “A2, DRw52”.

Regarding `CC(=O)Oc1ccccc1C(=O)O` [Aspirin], the “HLA allele association(s)” value in series [4] is “DPB1*03:01; also recorded: DRB1*13:02-DQB1*06:09”.

Regarding `CC(C)(S)[C@@H](N)C(=O)O` [d-penicillamine], the “HLA allele association(s)” value in series [4] was “B8, DR3, DR1”.

Take `NC(=O)c1ncn([C@@H]2O[C@H](CO)[C@@H](O)[C@H]2O)n1` [ribavirin]: the “stimulation of H2-D^d T cells” value in series [7] is given as “stimulated”. Also, in series [6], the “enhanced killing of IMEA HCC” value is given as “enhanced killing”.

With `Cc1cc(NS(=O)(=O)c2ccc(N)cc2)no1` [Sulfamethoxazole], the “HLA allele association(s)” value in series [4] was “A30; B13; Cw6”.
